Assay results published in patent publication US8877769B2, “Heteroaryl-substituted urea modulators of fatty acid amide hydrolase” (Janssen Pharmaceutica NV, priority 2008, dated 2014).

How the values were obtained:
anxiety = details: rats; zero plus maze; cited from earlier work
thermal nociception [1] = details: rat hot plate test; cited from earlier work
[2] = rat formalin test; cited from earlier work
thermal nociception [3] = details: rats; tail emersion test; cited from earlier work
FAAH [4] = biological target: T1, FAAH (Homo sapiens, UniProt O00519); details: cited from earlier work
T1 sequence (O00519 1-579): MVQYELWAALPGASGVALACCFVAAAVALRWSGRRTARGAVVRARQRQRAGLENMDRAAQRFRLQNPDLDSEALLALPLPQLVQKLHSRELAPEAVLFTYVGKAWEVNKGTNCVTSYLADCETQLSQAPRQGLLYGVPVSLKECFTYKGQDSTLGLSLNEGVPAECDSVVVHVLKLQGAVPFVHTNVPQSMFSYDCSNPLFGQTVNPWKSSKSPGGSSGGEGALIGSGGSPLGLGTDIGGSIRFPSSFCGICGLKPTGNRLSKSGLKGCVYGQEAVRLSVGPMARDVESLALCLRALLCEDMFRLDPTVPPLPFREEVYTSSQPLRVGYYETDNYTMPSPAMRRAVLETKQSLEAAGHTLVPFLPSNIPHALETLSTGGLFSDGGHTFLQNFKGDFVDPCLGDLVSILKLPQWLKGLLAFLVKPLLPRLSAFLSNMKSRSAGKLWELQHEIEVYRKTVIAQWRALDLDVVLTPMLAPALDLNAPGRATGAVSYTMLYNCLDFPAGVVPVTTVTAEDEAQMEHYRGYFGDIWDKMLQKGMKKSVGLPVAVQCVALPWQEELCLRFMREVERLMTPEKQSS

[5] = system: acute thermal nociception; details: rats; Hargraves test; cited from earlier work
neuropathic pain = details: rats; Chung spinal nerve ligation model; cited from earlier work
spasticity = details: CREAE mice; cited from earlier work
FAAH [6] = biological target: T1, FAAH; test: Assay Method 1: FAAH assay, 3H-anandamide hydrolysis in cell homogenate
Procedure: The assay mixture consisted of 50 μL of the cell homogenate, 10 μL of the test compound, and 40 μL of anandamide [1-^3H-ethanolamine] (^3H-AEA, Perkin-Elmer, 10.3 Ci/mmol), which was added last, for a final tracer concentration of 80 nM. The reaction mixture was incubated at rt for 1 h. During the incubation, 96-well Multiscreen filter plates (catalog number MAFCNOB50; Millipore, Bedford, Mass., USA) were loaded with 25 μL of activated charcoal (Multiscreen column loader, catalog number MACL09625, Millipore) and washed once with 100 μL of MeOH. […] After the 1 h incubation, 60 μL of the reaction mixture were transferred to the charcoal plates, which were then assembled on top of the DYNEX plates using Centrifuge Alignment Frames (catalog number MACF09604, Millipore). The unbound labeled ethanolamine was centrifuged through to the bottom plate (5 min at 2000 rpm), which was preloaded with the scintillant, as described above. The plates were sealed and left at rt for 1 h before counting on a Hewlett Packard TopCount. • Assay Method 2

Rat FAAH = biological target: T2, Rat FAAH (Rattus norvegicus, UniProt P97612); test: Assay Method 2: FAAH assay, 3H-anandamide hydrolysis in cell homogenate; assay type: biochemical; details: average of results obtained, > value = solubility limit or highest concentration tested
T2 construct: expressed in transfected cells
T2 sequence (P97612 1-579): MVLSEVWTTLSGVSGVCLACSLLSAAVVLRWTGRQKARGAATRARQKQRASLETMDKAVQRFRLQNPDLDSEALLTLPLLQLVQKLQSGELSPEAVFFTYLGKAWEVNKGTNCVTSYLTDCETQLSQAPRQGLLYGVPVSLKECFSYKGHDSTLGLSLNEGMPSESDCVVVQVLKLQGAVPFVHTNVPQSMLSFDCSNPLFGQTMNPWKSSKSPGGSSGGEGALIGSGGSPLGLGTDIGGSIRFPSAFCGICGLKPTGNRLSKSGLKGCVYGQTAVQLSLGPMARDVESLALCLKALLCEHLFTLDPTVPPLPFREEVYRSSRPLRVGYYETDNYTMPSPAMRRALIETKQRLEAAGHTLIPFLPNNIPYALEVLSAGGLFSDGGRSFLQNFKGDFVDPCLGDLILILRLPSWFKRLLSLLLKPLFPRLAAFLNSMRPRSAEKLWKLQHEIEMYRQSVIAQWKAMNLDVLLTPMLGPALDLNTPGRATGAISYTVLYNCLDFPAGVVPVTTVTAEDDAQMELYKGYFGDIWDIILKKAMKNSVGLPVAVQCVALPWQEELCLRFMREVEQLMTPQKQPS

SMILES | IC50 (FAAH [6]) [nM] | IC50 (Rat FAAH) [nM] | also measured
NC(=O)c1cccc(-c2cccc(OC(=O)NC3CCCCC3)c2)c1 [URB-597] |  |  | efficacy in anxiety model (anxiety): efficacy; analgesic efficacy / activity (thermal nociception [1]): analgesic efficacy; analgesic efficacy [2]: analgesic efficacy
O=C(CCCCCCc1ccccc1)c1ncc(-c2ccccn2)o1 [OL-135] |  |  | analgesic activity (thermal nociception [3]): analgesic activity; analgesic efficacy / activity (thermal nociception [1]): analgesic activity; inhibition of FAAH (FAAH [4]): potent inhibitor
Cc1nc(-c2ccccc2)c(-c2ccccc2)n1CCCCCCNC(=O)Oc1ccccc1F [BMS-1] |  |  | analgesic effect [5]: analgesic effect; analgesic effect (neuropathic pain): analgesic effect
CCCCCCCCCCCCCCCCS(=O)(=O)F [AM374] |  |  | reduction of spasticity (spasticity): significantly reduce spasticity

More lines, main results first:

IC50 (FAAH [6]) [nM] | IC50 (Rat FAAH) [nM] | SMILES | also measured
54 | 30 | O=C(Nc1cnc2cccnn12)N1CCN(Cc2ccc(OC(F)(F)F)c(Cl)c2)CC1 [Example 4, 4-(3-Chloro-4-trifluoromethoxy-benzyl)-piperazine-1-carboxylic acid imidazo[1,2-b]pyridazin-3-ylamide] | 
2600 | > 10000 | O=C(Nc1noc2ncccc12)N1CCN(Cc2ccc3ccccc3n2)CC1 [Example 12, 4-Quinolin-2-ylmethyl-piperazine-1-carboxylic acid isoxazolo[5,4-b]pyridin-3-ylamide] | 
3 | 3 | O=C(Nc1cnc2[nH]ccc2c1)N1CCC(Cc2ccc(Cl)c(Cl)c2)CC1 [Example 81, 4-(3,4-Dichloro-benzyl)-piperidine-1-carboxylic acid (1H-pyrrolo[2,3-b]pyridin-5-yl)-amide] | 
1000 | 6000 | O=C(Nc1ccnc2[nH]ccc12)N1CCN(Cc2cccc(Oc3ccc(Cl)cc3)c2)CC1 [Example 61, 4-[3-(4-Chloro-phenoxy)-benzyl]-piperazine-1-carboxylic acid (1H-pyrrolo[2,3-b]pyridin-4-yl)-amide] | 
73 | 280 | O=C(Nc1nocc1Cl)N1CCN(Cc2ccc3c(c2)OC(F)(F)O3)CC1 [Example 86, 4-(2,2-Difluoro-benzo[1,3]dioxol-5-ylmethyl)-piperazine-1-carboxylic acid (4-chloro-isoxazol-3-yl)-amide] | 
250 | 112 | O=C(Nc1noc2cccnc12)N1CCN(Cc2ccc(Cl)c(Cl)c2)CC1 [Example 43, 4-(3,4-Dichloro-benzyl)-piperazine-1-carboxylic acid isoxazolo[4,5-b]pyridin-3-ylamide] | 
